Test results taken from patent publication US20180344715A1, “WNT/BETA-CATENIN SIGNAL TRANSDUCTION INHIBITORS AND THEIR USE IN TREATMENT OR PREVENTION OF DISEASES AND CONDITIONS LINKED WITH SAID TRANSDUCTION” (BERGEN TEKNOLOGIOVERFORING AS, priority 2015, published 2018).

What was measured:
free GFP = target: T1, free GFP (Aequorea victoria, UniProt P42212); experiment: MST ligand-binding assay, free GFP negative control; settings: SW480 cell lysates, negative controls, two parallels
T1 construct: expressed in transfected cells; host or cells: SW480
Method: Ten million SW480 cells overexpressing GFP-tagged SHPRH or free GFP were lysed in 1 mL radioimmunoprecipitation assay (RIPA) buffer. Cell lysates were diluted in buffer A [50 mM Hepes buffer (pH 7.5), 5 mM DTT, 10 mM CaCl2), 50 mM NaCl, and 0.05% Tween-20] to a final concentration at which the fluorescent signals of the GFP proteins were similar and well above the detection limit of the Monolith NT.115 instrument (NanoTemper Technologies GmbH). Ten microliters of each receptor were mixed with 10 μL of the ligand at various concentrations from 100 μM to 3.05 nM. Specifically, the ligand (4 mM in 100% DMSO) was diluted 1:20 to a final concentration of 200 μM in buffer A (giving 5% DMSO). Ten microliters of the 200 μM ligand solution was further serially diluted 1:1 in 10 μL of buffer A supplemented with 5% DMSO to make a 16-sample dilution series down to 6.1 nM. Ten microliters of the cell lysate were added to 10 μL of each ligand solution. […] The fluorescence signal during the thermophoresis was monitored for 30 s, and the change in fluorescence was analyzed as thermophoresis with T-jump. The Kd was calculated by fitting a standard binding curve to the average of four independent dilution series.

MED23 and β-catenin = target: T2, MED23 and β-catenin (Homo sapiens, UniProt Q9ULK4); experiment: Co-immunoprecipitation of MED23 and β-catenin; type: cell-based; settings: SW480, 5 μM, 4 hours
T2 construct: endogenous in cells; host or cells: SW480
T2 sequence (Q9ULK4 1-1368): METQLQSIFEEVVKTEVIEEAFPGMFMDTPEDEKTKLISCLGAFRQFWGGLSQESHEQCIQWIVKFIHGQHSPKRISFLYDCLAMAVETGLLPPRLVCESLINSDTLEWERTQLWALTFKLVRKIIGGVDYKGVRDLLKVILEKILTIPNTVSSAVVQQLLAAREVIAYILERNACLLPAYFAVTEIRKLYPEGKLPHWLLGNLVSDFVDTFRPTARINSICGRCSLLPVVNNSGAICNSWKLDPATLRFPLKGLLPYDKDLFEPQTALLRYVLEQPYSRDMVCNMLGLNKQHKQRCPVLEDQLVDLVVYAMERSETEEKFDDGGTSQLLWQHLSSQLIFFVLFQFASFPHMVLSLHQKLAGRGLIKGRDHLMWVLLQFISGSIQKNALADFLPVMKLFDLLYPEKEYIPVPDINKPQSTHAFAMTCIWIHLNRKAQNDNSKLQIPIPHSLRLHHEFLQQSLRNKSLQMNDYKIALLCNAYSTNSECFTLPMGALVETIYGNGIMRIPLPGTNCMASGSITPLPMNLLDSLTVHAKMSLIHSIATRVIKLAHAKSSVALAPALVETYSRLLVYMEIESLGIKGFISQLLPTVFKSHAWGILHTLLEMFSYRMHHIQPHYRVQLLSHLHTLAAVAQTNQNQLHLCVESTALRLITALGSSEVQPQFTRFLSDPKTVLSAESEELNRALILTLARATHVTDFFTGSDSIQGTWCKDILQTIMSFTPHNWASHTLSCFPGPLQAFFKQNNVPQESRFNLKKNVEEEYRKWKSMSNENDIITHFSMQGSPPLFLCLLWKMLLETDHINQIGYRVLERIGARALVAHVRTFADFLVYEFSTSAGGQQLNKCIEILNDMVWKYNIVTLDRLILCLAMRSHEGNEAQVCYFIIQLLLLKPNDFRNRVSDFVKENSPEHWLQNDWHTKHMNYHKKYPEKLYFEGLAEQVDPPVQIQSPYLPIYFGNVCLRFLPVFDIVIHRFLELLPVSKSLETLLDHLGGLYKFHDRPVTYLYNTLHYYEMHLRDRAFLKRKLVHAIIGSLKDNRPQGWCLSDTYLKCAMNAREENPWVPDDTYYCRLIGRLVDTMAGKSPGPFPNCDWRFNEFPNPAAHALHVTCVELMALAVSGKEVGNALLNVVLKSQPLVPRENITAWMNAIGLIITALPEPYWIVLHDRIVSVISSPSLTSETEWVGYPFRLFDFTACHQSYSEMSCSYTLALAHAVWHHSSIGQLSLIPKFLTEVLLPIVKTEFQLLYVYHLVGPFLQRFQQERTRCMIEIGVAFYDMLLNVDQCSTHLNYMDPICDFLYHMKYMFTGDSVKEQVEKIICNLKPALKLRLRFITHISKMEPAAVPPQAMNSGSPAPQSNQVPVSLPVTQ
Method: Co-IP was done following the protocol of Dynabeads Co-Immunoprecipitation Kit (Life Technologies, 14321D). […] After saving 2% samples for input control, cell lysates were equally divided between 3 tubes, incubated with 3 mg Dynabeads and 21 μg mouse IgG (15381, Sigma), primary antibody against MED23 (BD550429, clone D27-1805, BD Biosciences) and β-catenin (ab22656, clone 12F7, Abcam), respectively. Input controls and proteins pulled down with individual antibodies were examined by Western blotting.

[1] = tested on: Apc (VilCre^ER Apc^fl/fl) intestinal organoids; experiment: Apc mutant intestinal organoid culture; type: cell-based, mouse; settings: 7 days
From the text: Mouse intestinal Apc (VilCre^ER Apc^fl/fl) organoids were obtained from Owen J. Sansom's laboratory at the Beatson Institute for Cancer Research, Glasgow, UK. The culture protocol has been described previously (14). Briefly, Apc mutant organoids were suspended in Growth Factor Reduced Matrigel (catalog no. 356231; Corning) and cultured in Advanced DMEM/F12 (catalog no. 12634-028; Invitrogen) containing 1% B-27 supplement (50×), minus vitamin A (catalog no. 12587-010; Invitrogen) and 0.1% BSA. Organoids were seeded in 24-well plates at a density of 70-100 organoids/50 μL Matrigel in each well. […] One week later organoids were imaged using the Cytation 5 Cell Imaging Multi-Mode Reader (BioTek Instruments, Inc.).

**Q.** `CNC(=O)c1ccccc1Sc1ccc2c(/C=C/c3ccccn3)n[nH]c2c1` [axitinib, N-Methyl-2-[[3-[(E)-2-pyridin-2-ylethenyl]-1H-indazol-6-yl]sulfanyl]benzamide] was tested. Which “binding of the ligand to free GFP” value (free GFP) did it give?
**A.** The value was “did not show any binding”.

**Q.** And the “endogenous association of MED23 and β-catenin” value (MED23 and β-catenin)?
**A.** Its value is “disrupted”.

**Q.** What about the “growth of Apc-deleted murine organoids” value [1] of the same compound?
**A.** The value was “strongly inhibited”.
